Test results reported in patent US9067871B2, “Aminotetraline derivatives, pharmaceutical compositions containing them, and their use in therapy” (ABBVIE DEUTSCHLAND GMBH & CO KG, priority 2009, dated 2015).
Where a name gives a salt, the structure may show the parent alone.

target: human GlyT1c transporter (Homo sapiens (Human), UniProt P48067); assay: Radioligand binding assay using recombinant CHO cell membranes expressing human GlyT1; conditions: human GlyT1c-expressing CHO cell membranes; hydrochloride; read-out: radioligand binding Kiapp
Source text: 2. Radioligand binding assays using recombinant CHO cell membranes expressing human GlyT1: […]

Sequence of human GlyT1c transporter (P48067 whole entry): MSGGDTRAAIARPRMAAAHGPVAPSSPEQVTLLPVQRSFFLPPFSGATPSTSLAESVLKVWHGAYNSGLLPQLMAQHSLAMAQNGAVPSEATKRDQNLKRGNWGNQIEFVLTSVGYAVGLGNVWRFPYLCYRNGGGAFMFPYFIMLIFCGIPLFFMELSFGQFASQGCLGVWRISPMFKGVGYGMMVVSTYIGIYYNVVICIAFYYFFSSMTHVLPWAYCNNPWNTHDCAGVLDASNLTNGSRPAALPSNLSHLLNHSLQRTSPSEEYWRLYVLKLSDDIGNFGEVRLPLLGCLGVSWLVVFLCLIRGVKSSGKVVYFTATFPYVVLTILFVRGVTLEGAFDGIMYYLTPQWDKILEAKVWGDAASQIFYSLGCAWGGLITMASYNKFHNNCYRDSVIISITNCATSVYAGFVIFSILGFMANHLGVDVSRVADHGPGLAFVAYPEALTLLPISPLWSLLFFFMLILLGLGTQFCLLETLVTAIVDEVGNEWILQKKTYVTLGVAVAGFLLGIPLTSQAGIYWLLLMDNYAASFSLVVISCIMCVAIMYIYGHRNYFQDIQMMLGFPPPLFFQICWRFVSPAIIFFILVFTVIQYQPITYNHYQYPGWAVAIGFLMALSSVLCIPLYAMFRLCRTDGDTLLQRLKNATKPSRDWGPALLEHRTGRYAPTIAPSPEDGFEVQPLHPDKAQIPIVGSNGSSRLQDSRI

Row | Ki [nM] | SMILES
1 | ≤ 1000 | NC1CCc2ccc(OCCNS(=O)(=O)CCC(F)(F)F)cc2C1Cc1ccccc1 (stereo not drawn) [Example 100, 3,3,3-Trifluoro-propane-1-sulfonic acid [2-(7-amino-8-benzyl-5,6,7,8-tetrahydronaphthalen-2-yloxy)-ethyl]amide hydrochloride]

same assay, conditions: human GlyT1c-expressing CHO cell membranes; read-out: radioligand binding Kiapp

Row | SMILES | Ki [nM]
2 | O=S(=O)(NCc1ccc2c(c1)C(Cc1ccccc1)C(N1CCC1)CC2)c1ccccn1 (single isomer, unassigned; enantiomer 1) [Example 253, Enantiomer 1 of N-{[7-(azetidin-1-yl)-8-benzyl-5,6,7,8-tetrahydronaphthalen-2-yl]methyl}pyridine-2-sulfonamide] | ≤ 1000
3 | Cn1cc(S(=O)(=O)NCc2ccc3c(c2)C(Cc2ccccc2)C(N2CCC2)CC3)cn1 (single isomer, unassigned; enantiomer 1) [Example 254, Enantiomer 1 of N-{[7-(azetidin-1-yl)-8-benzyl-5,6,7,8-tetrahydronaphthalen-2-yl]methyl}-1-methyl-1H-pyrazole-4-sulfonamide] | ≤ 10
4 | CNC1CCc2ccc(OCCNS(=O)(=O)CC3CC3)cc2C1Cc1cccc(F)c1 (single isomer, unassigned; enantiomer 2) [Example 239, Enantiomer 2 of C-cyclopropyl-N-{2-[8-(3-fluoro-benzyl)-7-methylamino-5,6,7,8-tetrahydronaphthalen-2-yloxy]-ethyl}-methanesulfonamide hydrochloride] | ≤ 1000
5 | CNC1CCc2ccc(OCCNS(=O)(=O)c3ccn(C)c3)cc2C1Cc1cc(F)cc(F)c1 (single isomer, unassigned; enantiomer 2) [Example 242, Enantiomer 2 of N-(2-{[8-(3,5-difluorobenzyl)-7-(methylamino)-5,6,7,8-tetrahydronaphthalen-2-yl]oxy}ethyl)-1-methyl-1H-pyrrole-3-sulfonamide hydrochloride] | ≤ 10
6 | CNC1CCc2ccc(OCCNS(=O)(=O)CC3CC3)cc2C1Cc1cc(F)cc(F)c1 (single isomer, unassigned; enantiomer 2) [Example 244, Enantiomer 2 of 1-cyclopropyl-N-(2-{[8-(3,5-difluorobenzyl)-7-(methylamino)-5,6,7,8-tetrahydronaphthalen-2-yl]oxy}ethylmethanesulfonamide hydrochloride] | ≤ 10
7 | C[Si](C)(C)CCS(=O)(=O)NCCOc1ccc2c(c1)C(Cc1ccc(Cl)c(Cl)c1)C(N)CC2 (stereo not drawn) [Example 86, 2-Trimethylsilanyl-ethanesulfonic acid {2-[7-amino-8-(3,4-dichloro-benzyl)-5,6,7,8-tetrahydro-naphthalen-2-yloxy]-ethyl}-amide hydrochloride] | ≤ 10000
8 | O=S(=O)(NCCOc1ccc2c(c1)C(Cc1ccc(Cl)c(Cl)c1)C(N1CCCC1)CC2)C1CCC1 (stereo not drawn) [Example 88, Cyclobutanesulfonic acid {2-[8-(3,4-dichloro-benzyl)-7-pyrrolidin-1-yl-5,6,7,8-tetrahydronaphthalen-2-yloxy]-ethyl}-amide hydrochloride] | ≤ 100
9 | CCCCS(=O)(=O)NCCOc1ccc2c(c1)C(Cc1ccc(Cl)c(Cl)c1)C(N)CC2 (stereo not drawn) [Example 90, Butane-1-sulfonic acid {2-[7-amino-8-(3,4-dichloro-benzyl)-5,6,7,8-tetrahydro-naphthalen-2-yloxy]-ethyl}-amide hydrochloride] | ≤ 1000
10 | CN(CCOc1ccc2c(c1)C(Cc1ccccc1)C(N)CC2)S(=O)(=O)c1cn(C)cn1 (stereo not drawn) [Example 98, 1-Methyl-1H-imidazole-4-sulfonic acid [2-(7-amino-8-benzyl-5,6,7,8-tetrahydronaphthalen-2-yloxy)-ethyl]-methyl-amide hydrochloride] | ≤ 1000
11 | NC1CCc2ccc(OCCNS(=O)(=O)c3ccccc3)cc2C1Cc1ccccc1 (stereo not drawn) [Example 99, N-[2-(7-Amino-8-benzyl-5,6,7,8-tetrahydro-naphthalen-2-yloxy)-ethyl]-benzenesulfonamide hydrochloride] | ≤ 100
12 | NC1CCc2ccc(OCCNS(=O)(=O)C3CC3)cc2C1Cc1ccccc1 (stereo not drawn) [Example 102, Cyclopropanesulfonic acid [2-(7-amino-8-benzyl-5,6,7,8-tetrahydro-naphthalen-2-yloxy)ethyl]-amide hydrochloride] | ≤ 1000
13 | CCC(=O)NCCOc1ccc2c(c1)C(Cc1ccccc1)C(N)CC2 (stereo not drawn) [Example 103, N-[2-(7-Amino-8-benzyl-5,6,7,8-tetrahydro-naphthalen-2-yloxy)-ethyl]-propionamide hydrochloride] | ≤ 10000
14 | CN(CCOc1ccc2c(c1)C(Cc1ccccc1)C(N1CCC1)CC2)S(=O)(=O)c1cn(C)cn1 (stereo not drawn) [Example 105, 1-Methyl-1H-imidazole-4-sulfonic acid [2-(7-azetidin-1-yl-8-benzyl-5,6,7,8-tetrahydronaphthalen-2-yloxy)-ethyl]-methyl-amide] | ≤ 100
15 | NC1CCc2ccc(OCCNS(=O)(=O)CC3CCC3)cc2C1Cc1ccc(Cl)c(Cl)c1 (stereo not drawn) [Example 106, N-{2-[7-Amino-8-(3,4-dichloro-benzyl)-5,6,7,8-tetrahydro-naphthalen-2-yloxy]-ethyl}-Ccyclobutyl-methanesulfonamide hydrochloride] | ≤ 1000
16 | CN(CCOc1ccc2c(c1)C(Cc1ccccc1)C(N)CC2)S(=O)(=O)c1cnn(C)c1 (stereo not drawn) [Example 109, 1-Methyl-1H-pyrazole-4-sulfonic acid [2-(7-amino-8-benzyl-5,6,7,8-tetrahydro-naphthalen-2-yloxy)-ethyl]-methyl-amide] | ≤ 100
17 | CCN(CCOc1ccc2c(c1)C(Cc1ccc(Cl)c(Cl)c1)C(N)CC2)S(=O)(=O)c1cnn(C)c1 (stereo not drawn) [Example 110, N-(2-(7-Amino-8-(3,4-dichlorobenzyl)-5,6,7,8-tetrahydronaphthalen-2-yloxy)ethyl)-N-ethyl-1-methyl-1H-pyrazole-4-sulfonamide] | ≤ 1000

Further lines, results first:

Row | Ki [nM] | SMILES
18 | ≤ 1000 | O=S(=O)(NCc1ccc2c(c1)C(Cc1ccccc1)C(N1CCC1)CC2)c1cccs1 (single isomer, unassigned; enantiomer 1) [Example 255, Enantiomer 1 of N-{[7-(azetidin-1-yl)-8-benzyl-5,6,7,8-tetrahydronaphthalen-2-yl]methyl}thiophene-2-sulfonamide]
19 | ≤ 1000 | NC1CCc2ccc(OCCNS(=O)(=O)C3CCCCC3)cc2C1Cc1ccc(Cl)c(Cl)c1 (stereo not drawn) [Example 85, Cyclohexanesulfonic acid {2-[7-amino-8-(3,4-dichloro-benzyl)-5,6,7,8-tetrahydro-naphthalen-2-yloxy]-ethyl}-amide hydrochloride]
20 | ≤ 10000 | Cc1cc(CS(=O)(=O)NCCOc2ccc3c(c2)C(Cc2ccc(Cl)c(Cl)c2)C(N)CC3)no1 (stereo not drawn) [Example 87, N-{2-[7-Amino-8-(3,4-dichloro-benzyl)-5,6,7,8-tetrahydro-naphthalen-2-yloxy]-ethyl}-C-(5-methyl-isoxazol-3-yl)-methanesulfonamide hydrochloride]
21 | ≤ 100 | CN(CCOc1ccc2c(c1)C(Cc1ccc(Cl)c(Cl)c1)C(N1CCCC1)CC2)S(=O)(=O)c1cnn(C)c1 (stereo not drawn) [Example 89, 1-Methyl-1H-pyrazole-4-sulfonic acid {2-[8-(3,4-dichloro-benzyl)-7-pyrrolidin-1-yl-5,6,7,8-tetrahydro-naphthalen-2-yloxy]-ethyl}-methyl-amide hydrochloride]
22 | ≤ 100 | CC(C)S(=O)(=O)NCCOc1ccc2c(c1)C(Cc1ccc(Cl)c(Cl)c1)C(N)CC2 (stereo not drawn) [Example 91, Propane-2-sulfonic acid {2-[7-amino-8-(3,4-dichloro-benzyl)-5,6,7,8-tetrahydronaphthalen-2-yloxy]-ethyl}-amide hydrochloride]
23 | ≤ 1000 | CCOCCS(=O)(=O)NCCOc1ccc2c(c1)C(Cc1ccc(Cl)c(Cl)c1)C(N)CC2 (stereo not drawn) [Example 93, 2-Ethoxy-ethanesulfonic acid {2-[7-amino-8-(3,4-dichloro-benzyl)-5,6,7,8-tetrahydronaphthalen-2-yloxy]-ethyl}-amide hydrochloride]
24 | ≤ 100 | CN(CCOc1ccc2c(c1)C(Cc1ccc(Cl)c(Cl)c1)C(N1CCCC1)CC2)S(=O)(=O)C1CCC1 (stereo not drawn) [Example 94, Cyclobutanesulfonic acid {2-[8-(3,4-dichloro-benzyl)-7-pyrrolidin-1-yl-5,6,7,8-tetrahydronaphthalen-2-yloxy]-ethyl}-methyl-amide hydrochloride]
25 | ≤ 10 | NC1CCc2ccc(OCCNS(=O)(=O)CC3CC3)cc2C1Cc1ccc(Cl)c(Cl)c1 (stereo not drawn) [Example 95, N-{2-[7-Amino-8-(3,4-dichloro-benzyl)-5,6,7,8-tetrahydro-naphthalen-2-yloxy]-ethyl}-C-cyclopropyl-methanesulfonamide hydrochloride]
26 | ≤ 100 | CN(CCOc1ccc2c(c1)C(Cc1ccccc1)C(N1CCCC1)CC2)S(=O)(=O)c1cn(C)cn1 (stereo not drawn) [Example 101, 1-Methyl-1H-imidazole-4-sulfonic acid [2-(8-benzyl-7-pyrrolidin-1-yl-5,6,7,8-tetrahydronaphthalen-2-yloxy)-ethyl]-methyl-amide hydrochloride]
27 | ≤ 1000 | Cn1cnc(S(=O)(=O)NCCOc2ccc3c(c2)C(Cc2ccc(Cl)c(Cl)c2)C(N)CC3)n1 (stereo not drawn) [Example 104, 1-Methyl-1H-[1,2,4]triazole-3-sulfonic acid {2-[7-amino-8-(3,4-dichloro-benzyl)-5,6,7,8-tetrahydro-naphthalen-2-yloxy]-ethyl}-amide]
28 | ≤ 100 | CCCS(=O)(=O)NCCOc1ccc2c(c1)C(Cc1cccc(F)c1)C(N)CC2 (stereo not drawn) [Example 107, Propane-1-sulfonic acid {2-[7-amino-8-(3-fluoro-benzyl)-5,6,7,8-tetrahydro-naphthalen-2-yloxy]-ethyl}-amide hydrochloride]
29 | ≤ 10 | CN(CCOc1ccc2c(c1)C(Cc1ccc(Cl)c(Cl)c1)C(N)CC2)S(=O)(=O)CC1CC1 (stereo not drawn) [Example 108, N-{2-[7-Amino-8-(3,4-dichloro-benzyl)-5,6,7,8-tetrahydro-naphthalen-2-yloxy]-ethyl}-C-cyclopropyl-N-methyl-methanesulfonamide hydrochloride]
30 | ≤ 100 | CN(CCOc1ccc2c(c1)C(Cc1ccccc1)C(N1CCCC1)CC2)S(=O)(=O)c1cnn(C)c1 (stereo not drawn) [Example 111, 1-Methyl-1H-pyrazole-4-sulfonic acid [2-(8-benzyl-7-pyrrolidin-1-yl-5,6,7,8-tetrahydronaphthalen-2-yloxy)-ethyl]-methyl-amide hydrochloride]
